Data on three molecules can be found in patent publication US12275731B2, “Azaindole inhibitors of wild-type and mutant forms of LRRK2” (DANA-FARBER CANCER INSTITUTE, INC., priority 2018, dated 2025).

In one assay the target is LRRK2(G2019S) (Homo sapiens, UniProt Q5S007, G2019S). Briefly: LRRK2 G2019S kinase inhibition assay (ADP-Glo). The class given is biochemical. Details: purchased SignalChem L10-12GG. Particulars: Table 2, class symbols; read-out: Enzyme activity against LRRK2 G2019S (IC50). The procedure:
(§1) IC50 experiments were performed for inventive compounds. An exemplary kit to perform this assay includes the Adapta™ Screening Protocol and Assay Conditions by Invitrogen™ (Fisher Scientific™, Catalog No. PV5099).
(§2) All LRRK2 kinase inhibition assays were conducted by using Promega ADP-Glo™ Kinase assay systems (Catalog number; V4475). Inhibitors were tested with 12 concentrations over a 5-fold serial dilution series (50 μM, 10 μM, 2 μM, 400 nM, 80 nM, 16 nM, 3.2 nM, […]) and PF06447475 as positive control. For the LRRK2 wild type (WT) enzyme assay, each inhibitor was mixed with 0.2 μg/μL of substrate (LRRKtide, SignalChem, Richmond, BC, Canada), […] (Invitrogen™, Carlsbad, CA), 24 ng of LRRK2 WT enzyme (Thermo Fisher Scientific, PR8604B) in 384-well plate. For LRRK G2019S, each compound was mixed with 0.2 μg/μL of substrate, […], 16 ng of LRRK2 G2019S enzyme (SignalChem, L10-12GG). All samples were diluted with kinase reaction buffer (40 mmol/L TrisHCl, 10 mmol/L MgCl2, and 0.1 μg/μL BSA (bovine serum albumin)). After 2 hours at 25° C., ADP-Glo™ (Promega, Madison, WI) reagent was added and the samples were incubated at rt for 40 min. Finally, Kinase Detection Reagent was added and the resulting mixtures were allowed to react at rt for 10 min. Luminescence signals were detected using Synergy™ Neo2 microplate reader (Bio-Tek). Compound inhibition curve was fitted using Graphpad Prism 8.0 software.

The target in another assay is T1, LRRK2 WT enzyme (Homo sapiens, UniProt Q5S007).
T1 construct: purchased Thermo Fisher Scientific PR8604B
Briefly: LRRK2 wild type kinase inhibition assay (ADP-Glo). The class given is biochemical. Particulars: Table 2, class symbols; read-out: Enzyme activity against LRRK2 WT (IC50). The procedure:
as §1, §2
For orientation: ADP-Glo first removes unused ATP, then detects ADP through luciferase.

The target of the next assay is CDKL1 (Homo sapiens, UniProt Q00532). Kind of assay: KinomeScan profiling. The class given is binding. Conditions: CDKL1, 1 μM; read-out: % control. Summed up: (§3)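 Selectivity was assessed by binding competition at 1 μM against 468 kinases. Values below 35% of control define an interaction.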
For a further assay, the system named is FLT3(ITD, D835V). Kind of assay: KinomeScan profiling. The class given is binding. Particulars: 1 μM. Summed up: as §3
A further assay deals with T2, GRK2 (Homo sapiens, UniProt P25098).
T2 sequence (P25098 1-689): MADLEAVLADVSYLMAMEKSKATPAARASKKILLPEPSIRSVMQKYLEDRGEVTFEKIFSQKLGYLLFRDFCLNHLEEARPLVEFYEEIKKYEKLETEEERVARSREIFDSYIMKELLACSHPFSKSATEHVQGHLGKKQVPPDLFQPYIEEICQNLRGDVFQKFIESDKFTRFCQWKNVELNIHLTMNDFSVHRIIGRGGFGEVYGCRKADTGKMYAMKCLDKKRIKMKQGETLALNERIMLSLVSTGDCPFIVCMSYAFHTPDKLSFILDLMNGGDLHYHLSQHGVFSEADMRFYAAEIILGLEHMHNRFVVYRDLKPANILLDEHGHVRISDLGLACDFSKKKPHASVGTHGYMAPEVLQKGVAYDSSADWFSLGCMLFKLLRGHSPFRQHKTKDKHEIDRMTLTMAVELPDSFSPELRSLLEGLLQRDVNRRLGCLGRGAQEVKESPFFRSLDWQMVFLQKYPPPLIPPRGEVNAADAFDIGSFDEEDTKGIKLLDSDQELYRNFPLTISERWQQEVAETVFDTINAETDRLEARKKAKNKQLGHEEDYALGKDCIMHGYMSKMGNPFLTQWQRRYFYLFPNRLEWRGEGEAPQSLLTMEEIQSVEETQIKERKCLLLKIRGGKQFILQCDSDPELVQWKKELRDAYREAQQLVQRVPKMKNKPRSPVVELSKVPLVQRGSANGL
Briefly: KinomeScan profiling. Conditions: GRK2, 1 μM; read-out: % control. The class given is binding. Summed up:
as §3

Another assay has as its system FLT3(ITD, F691L). Briefly: KinomeScan profiling. The class given is binding. Conditions: 1 μM. The method, boiled down: as §3
The target in another assay is T3, PKMYT1 (Homo sapiens, UniProt Q99640).
T3 sequence (Q99640 1-499): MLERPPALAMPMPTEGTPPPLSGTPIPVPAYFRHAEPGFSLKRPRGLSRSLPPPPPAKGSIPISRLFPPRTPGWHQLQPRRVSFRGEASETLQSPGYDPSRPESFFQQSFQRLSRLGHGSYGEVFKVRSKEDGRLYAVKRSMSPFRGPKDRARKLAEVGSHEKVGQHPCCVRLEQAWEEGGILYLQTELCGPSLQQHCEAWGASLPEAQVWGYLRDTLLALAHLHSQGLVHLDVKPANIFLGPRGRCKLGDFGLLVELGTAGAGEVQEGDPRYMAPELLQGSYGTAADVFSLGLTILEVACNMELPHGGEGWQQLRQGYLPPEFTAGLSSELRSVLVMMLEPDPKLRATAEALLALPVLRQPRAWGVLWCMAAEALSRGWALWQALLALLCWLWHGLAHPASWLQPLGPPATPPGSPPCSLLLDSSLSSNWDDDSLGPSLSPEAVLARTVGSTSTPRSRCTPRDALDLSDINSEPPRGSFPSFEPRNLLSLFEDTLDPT
Kind of assay: KinomeScan profiling. The class given is binding. Conditions: PKMYT1, 1 μM; read-out: % control. The method, boiled down:
as §3

The test system of the next assay is FLT3(ITD). Briefly: KinomeScan profiling. Conditions: 1 μM. The class given is binding. The method, boiled down:
as §3

The next assay has as its target TGFBR2 (Homo sapiens, UniProt P37173). Briefly: KinomeScan profiling. The class given is binding. Particulars: TGFBR2, 1 μM; read-out: % control. The method, boiled down:
as §3

For another assay, the target named is PKNB(M. tuberculosis) (Mycobacterium tuberculosis, UniProt P9WI81). Kind of assay: KinomeScan profiling. The class given is binding. Particulars: read-out: % control.

Each structure is given as a SMILES string.

In general, IC50 refers to the concentration that gives 50% inhibition.

Sequence of TGFBR2 (P37173 23-567): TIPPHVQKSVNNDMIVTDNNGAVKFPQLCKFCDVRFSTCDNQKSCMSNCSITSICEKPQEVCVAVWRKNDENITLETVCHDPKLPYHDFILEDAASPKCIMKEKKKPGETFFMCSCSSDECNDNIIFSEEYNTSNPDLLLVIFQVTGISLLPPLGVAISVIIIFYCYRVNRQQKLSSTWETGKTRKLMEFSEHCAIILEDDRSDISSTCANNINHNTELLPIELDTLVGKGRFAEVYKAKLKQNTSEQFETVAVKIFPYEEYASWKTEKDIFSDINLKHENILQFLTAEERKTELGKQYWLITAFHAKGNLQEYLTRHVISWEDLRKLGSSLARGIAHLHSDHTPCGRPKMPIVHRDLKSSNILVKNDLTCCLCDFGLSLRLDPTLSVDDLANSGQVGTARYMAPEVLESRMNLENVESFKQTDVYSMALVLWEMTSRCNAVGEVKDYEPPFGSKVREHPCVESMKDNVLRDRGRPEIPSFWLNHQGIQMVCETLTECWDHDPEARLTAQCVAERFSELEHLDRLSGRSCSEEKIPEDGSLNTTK
Sequence of CDKL1 (Q00532 whole entry): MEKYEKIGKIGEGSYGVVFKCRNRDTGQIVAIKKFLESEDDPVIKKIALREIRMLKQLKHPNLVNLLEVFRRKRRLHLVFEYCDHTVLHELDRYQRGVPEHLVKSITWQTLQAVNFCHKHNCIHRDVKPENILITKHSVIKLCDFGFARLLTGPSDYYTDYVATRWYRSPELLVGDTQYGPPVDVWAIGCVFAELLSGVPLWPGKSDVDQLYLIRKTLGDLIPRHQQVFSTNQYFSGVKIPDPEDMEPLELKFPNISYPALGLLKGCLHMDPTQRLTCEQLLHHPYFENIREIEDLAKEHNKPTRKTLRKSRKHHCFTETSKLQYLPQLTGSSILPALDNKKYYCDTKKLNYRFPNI
Sequence of PKNB(M. tuberculosis) (P9WI81 whole entry): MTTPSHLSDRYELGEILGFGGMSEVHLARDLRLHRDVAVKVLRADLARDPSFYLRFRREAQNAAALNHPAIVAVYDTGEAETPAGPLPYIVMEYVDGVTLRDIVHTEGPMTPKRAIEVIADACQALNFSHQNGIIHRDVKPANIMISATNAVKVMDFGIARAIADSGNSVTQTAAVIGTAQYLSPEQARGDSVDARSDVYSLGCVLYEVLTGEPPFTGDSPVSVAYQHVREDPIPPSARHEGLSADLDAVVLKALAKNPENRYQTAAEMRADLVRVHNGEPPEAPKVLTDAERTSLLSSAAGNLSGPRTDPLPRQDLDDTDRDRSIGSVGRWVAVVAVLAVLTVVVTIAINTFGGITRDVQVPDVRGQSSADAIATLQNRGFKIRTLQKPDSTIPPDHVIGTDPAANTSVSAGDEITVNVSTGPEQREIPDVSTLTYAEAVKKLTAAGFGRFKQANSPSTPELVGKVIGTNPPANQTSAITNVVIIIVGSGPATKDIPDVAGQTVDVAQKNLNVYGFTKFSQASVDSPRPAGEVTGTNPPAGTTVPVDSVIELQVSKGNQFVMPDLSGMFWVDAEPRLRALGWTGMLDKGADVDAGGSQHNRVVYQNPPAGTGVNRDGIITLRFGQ
T1 sequence (Q5S007 970-2527 limits assumed): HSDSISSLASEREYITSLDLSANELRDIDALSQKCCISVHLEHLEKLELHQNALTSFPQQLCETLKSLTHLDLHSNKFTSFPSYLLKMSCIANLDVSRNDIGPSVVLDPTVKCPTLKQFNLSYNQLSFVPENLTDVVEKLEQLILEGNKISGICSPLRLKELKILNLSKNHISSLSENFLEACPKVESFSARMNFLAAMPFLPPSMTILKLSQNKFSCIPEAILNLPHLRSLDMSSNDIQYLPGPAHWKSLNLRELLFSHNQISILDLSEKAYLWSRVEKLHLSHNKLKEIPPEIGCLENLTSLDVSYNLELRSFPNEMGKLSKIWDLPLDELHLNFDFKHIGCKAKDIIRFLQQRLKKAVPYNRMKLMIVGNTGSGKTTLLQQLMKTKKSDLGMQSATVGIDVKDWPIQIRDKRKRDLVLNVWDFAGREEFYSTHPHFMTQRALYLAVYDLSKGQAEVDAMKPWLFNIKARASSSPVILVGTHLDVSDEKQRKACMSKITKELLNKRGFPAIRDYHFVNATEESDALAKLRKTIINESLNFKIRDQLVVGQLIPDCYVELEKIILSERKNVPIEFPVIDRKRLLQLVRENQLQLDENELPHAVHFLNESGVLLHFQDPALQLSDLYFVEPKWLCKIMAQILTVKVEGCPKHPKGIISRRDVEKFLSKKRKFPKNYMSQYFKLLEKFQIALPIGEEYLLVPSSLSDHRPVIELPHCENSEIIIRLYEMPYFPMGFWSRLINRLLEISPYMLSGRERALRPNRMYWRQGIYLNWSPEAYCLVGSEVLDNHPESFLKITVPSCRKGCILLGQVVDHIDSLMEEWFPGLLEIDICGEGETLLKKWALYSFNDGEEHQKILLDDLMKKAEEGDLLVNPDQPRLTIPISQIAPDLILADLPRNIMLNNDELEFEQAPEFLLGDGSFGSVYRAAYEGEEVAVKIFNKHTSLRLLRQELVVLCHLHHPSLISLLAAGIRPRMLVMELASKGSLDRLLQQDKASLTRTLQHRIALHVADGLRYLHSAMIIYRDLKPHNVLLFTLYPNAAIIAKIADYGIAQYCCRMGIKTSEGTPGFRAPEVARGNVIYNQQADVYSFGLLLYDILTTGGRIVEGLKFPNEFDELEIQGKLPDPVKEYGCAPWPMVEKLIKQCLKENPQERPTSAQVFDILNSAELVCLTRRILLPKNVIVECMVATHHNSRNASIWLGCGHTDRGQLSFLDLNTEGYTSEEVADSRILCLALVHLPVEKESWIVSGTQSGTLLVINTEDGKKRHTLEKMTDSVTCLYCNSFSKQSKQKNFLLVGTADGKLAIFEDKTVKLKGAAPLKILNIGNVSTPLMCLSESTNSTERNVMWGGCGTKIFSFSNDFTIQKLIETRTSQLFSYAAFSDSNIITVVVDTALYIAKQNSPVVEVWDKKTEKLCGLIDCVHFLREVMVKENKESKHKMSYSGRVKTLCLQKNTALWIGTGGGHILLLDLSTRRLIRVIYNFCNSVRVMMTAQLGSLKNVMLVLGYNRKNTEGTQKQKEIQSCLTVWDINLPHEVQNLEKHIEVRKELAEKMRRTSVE
Sequence of LRRK2(G2019S) (Q5S007 970-2527 G2019S limits assumed): as the sequence (Q5S007 970-2527 limits assumed) above, with G1050S counted along it

Turning to `CNc1c(-c2ccc(C(=O)N3CCC(N4CCOCC4)CC3)cc2)cnc2[nH]cc(Cl)c12` [Compound 96, (4-(3-chloro-4-(methylamino)-1H-pyrrolo[2,3-b]pyridin-5-yl)phenyl)(4-morpholinopiperidin-1-yl)methanone], the IC50 on LRRK2(G2019S) is less than 10 nM; at LRRK2 WT enzyme, 10 to 100 nM. Also, the remaining binding at 1 µM on CDKL1 was determined as 78%; on GRK2, 94%; at PKMYT1 it was 100%; at TGFBR2, 100%; at PKNB(M. tuberculosis) it was 61%. In addition, the “% control” value in the assay on FLT3(ITD, D835V) was determined as 3.6%; with FLT3(ITD, F691L), 0%; in the assay with FLT3(ITD) it was 8.1%.
Consider `O=C(c1ccc(-c2cnc3[nH]cc(Cl)c3c2NC2CCCC2)cc1)N1CCC(N2CCOCC2)CC1` [Compound 101, (4-(3-chloro-4-(cyclopentylamino)-1H-pyrrolo[2,3-b]pyridin-5-yl)phenyl)(4-morpholinopiperidin-1-yl)methanone], for which the remaining binding at 1 µM on CDKL1 worked out at 100%; at GRK2, 100%; on PKMYT1 it was 97%; on TGFBR2 it was 100%; on PKNB(M. tuberculosis), 89%. Further, the “% control” value with FLT3(ITD, D835V) was determined as 55%; with FLT3(ITD, F691L), 49%; in the assay on FLT3(ITD), 41%.
Consider `CNc1c(-c2cnn([C@H]3CCN(C(C)=O)C[C@@H]3F)c2)cnc2[nH]cc(Cl)c12` [Compound 77, 1-((3S,4S)-4-(4-(3-chloro-4-(methylamino)-1H-pyrrolo[2,3-b]pyridin-5-yl)-1H-pyrazol-1-yl)-3-fluoropiperidin-1-yl)ethan-1-one], for which the IC50 at LRRK2(G2019S) and on LRRK2 WT enzyme was 10 to 100 nM each time. Further, the remaining binding at 1 µM at CDKL1 is 76%; on GRK2, 93%; on PKMYT1 it was 98%; at TGFBR2, 100%; at PKNB(M. tuberculosis), 30%.
